The text below walks through data of patent US11998610B2, “Conjugates and methods of using the same” (Flagship Pioneering Innovations V, Inc., priority 2018, dated 2024).

Non-standard residues stand in square brackets, D forms with d. Residues, ends and D or L forms follow the SMILES beside them. *: point of attachment. Myristoyl = CCCCCCCCCCCCCC(=O)*; PhAc = O=C(Cc1ccccc1)*

The nature of data set [1]: Stability of conjugates in Simulated Intestinal Fluid (SIF). Type of data set: in vitro ADME. The conditions noted are these: simulated intestinal fluid pH 6.7 with pancreatin, 1 μM, 37° C. As for the experimental part:
Assay 2. Stability of conjugates in Simulated Intestinal Fluid (SIF). This assay was used to assess the stability of a conjugate in a small intestine. Phosphate buffer was prepared by dissolving 0.42 g of sodium hydroxide pellets and 3.95 g of monobasic sodium phosphate monohydrate and 6.19 g of sodium chloride in ultrapure water (MilliQ®, Millipore Sigma, Darmstadt, Germany). The pH was adjusted to 6.7 using aq. HCl and aq. NaOH, as necessary, and the solution was diluted with ultrapure water to produce 1 L of the pH 6.7 buffer. 112 mg FaSSIF powder (Biorelevant™, London, UK) was dissolved in 50 mL of the pH 6.7 buffer. 2 to 3 mL of the resulting solution were then added to 500 mg pancreatin (Millipore Sigma, Darmstadt, Germany). The resulting mixture was agitated by finger tapping the vessel containing the mixture until milky suspension formed. At this time, the remainder of the 50 mL FaSSiF/pH 6.7 buffer solution was added. The resulting suspension was flipped upside down 10 times to produce SIF, which was used fresh. Test compounds were dissolved in DMSO stock to 1 mM. An aliquot of the DMSO stock solution was removed and diluted in the SIF media in 15 mL falcon tubes to produce a mixture with a tested compound concentration of 1 μM. A 1 mL aliquot was immediately removed and diluted once with 1 volume of acetonitrile for T0 timepoint. The mixture was sealed and agitated at 37° C. in an incubator. Aliquots (1 mL) were removed at regular intervals and immediately quenched by the addition of 1 volume of acetonitrile. The resulting samples were analyzed by LC/MS to determine degradation rates

A short description of data set [2]: Stability of conjugates in Simulated Gastric Fluid (SGF). The class given is in vitro ADME. The settings on record: simulated gastric fluid pH 1.6 with pepsin, 1 μM, 37° C. As for the experimental part: Assay 1. Stability of conjugates in Simulated Gastric Fluid (SGF). This assay was used to assess the stability of a conjugate in a stomach. Medium was prepared by dissolving 2 g of sodium chloride in 0.6 L in ultrapure water (MilliQ®, Millipore Sigma, Darmstadt, Germany). The pH was adjusted to 1.6 with 1N hydrochloric acid, and the volume was then adjusted to 1 L with purified water. 60 mg FaSSIF powder (Biorelevant™, London, UK) were dissolved in 500 mL buffer (above). Pepsin was added (0.1 mg/mL) (Millipore Sigma, Darmstadt, Germany), and the solution was stirred. The resulting SGF media were used fresh for each experiment. Test compounds were dissolved in DMSO stock to 1 mM. An aliquot of the DMSO stock solution was removed and diluted in the SGF Media in 15 mL falcon tubes to generate a total compound concentration of 1 μM. A 1 mL aliquot was immediately removed and diluted once with 1 volume of acetonitrile for T0 timepoint. The mixture was sealed and mixed at 37° C. in an incubator. Aliquots (1 mL) were removed at regular intervals and immediately quenched by the addition of 1 volume of acetonitrile. The resulting samples were analyzed by LC/MS to determine degradation rates in SGF.

Data set [3] in a line: In vitro Colonic Material Stability Assay. The conditions noted are these: for Assay 3 (% Remaining at 24 h): colonic material slurry, anaerobic, 1 or 10 μM. Type of data set: in vitro ADME. As for the experimental part: Assay 3 In vitro Colonic Material Stability Assay. This assay was used to assess the stability of an acylated active agent in a large intestine. All experiments were performed in an anaerobic chamber containing 90% nitrogen, 5% hydrogen and 5% carbon dioxide. Colonic material was resuspended as a slurry (15% w/v final concentration) in pre-reduced, anaerobically sterilized dilution blanks (Anaerobe Systems AS-908). The colonic material was then inoculated into 96 well plates containing YCFAC media (Anaerobe Systems AS-680) or other suitable media (6.7 μL slurry into 1 mL total media). Compounds or groups of compounds were added to each individual well to reach a final analyte concentration of 1 or 10 μM, and the material was mixed by pipetting. Sample was removed after set timepoints (0, 120, 240, 480, 1440, 2880 minutes after initiation of the assay), quenched with acetonitrile containing internal standard, and analyzed by LC/MS.

Data set [4] relates to E. coli CFT073 ATCC 700928 and/or E. coli Nissle 1917. The data set can be described thus: Cell-based assay with ClbP with LCMS, ClbP positive strain. The settings on record: ClbP-encoding E. coli, 10 μM compound, 37° C., 20 h. The method in brief: (§1)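 Compound (10 μM final) incubated 20 h at 37° C, aerobically, with 1:40-diluted overnight cultures of ClbP-positive E. coli or negative BL21(DE3), in duplicate, alongside uninoculated LB. Remaining parent quantified by LC-MS/MS (MRM) after acetonitrile quench, expressed as percent of media-alone.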

The next data set concerns E. coli BL21(DE3). Description: Cell-based assay with ClbP with LCMS, ClbP negative strain. The conditions noted are these: 10 μM compound, 37° C., 20 h. The method in brief: as §1

With `COC(=O)[C@H](C)NC(=O)[C@@H](CC(N)=O)NC(=O)Cc1ccccc1` [Example 14, Methyl (2-phenylacetyl)-D-asparaginyl-L-alaninate] (PhAc-[dN]-Ala-OMe), the “Assay 2 (SIF) (% @ Remaining 4 hours)” value in data set [1] was “A (<25% of the tested compound remaining)”. In addition, in data set [2], the “Assay 1 (SGF) (% Remaining @ 1 hours)” value is recorded as “C (>75% of the tested compound remaining)”. The “Assay 3 (% Remaining at 24 h)” value in data set [3] is reported as “C (>75% of the tested compound remaining)”. Moreover, in data set [4], the “% Remaining in ClbP Positve Relative to Media-Only” value is recorded as “+ (between 25-75% compound remaining in the 20 μM WT ClbP reaction relative to the no-enzyme control)”. Besides, the “% Remaining in ClbP Negative Relative to Media-Only” value with E. coli BL21(DE3) is on record as “− (>75% compound remaining in the 20 μM WT ClbP reaction relative to the no-enzyme control)”.
`CCCCCCCC(=O)N[C@H](CC(N)=O)C(=O)N[C@@H](C)CCC(=O)Oc1ccc(Br)cc1` [Example 47, 4-bromophenyl (S)-4-((R)-4-amino-2-octanamido-4-oxobutanamido)pentanoate]: the “Assay 2 (SIF) (% @ Remaining 4 hours)” value in data set [1] is on record as “A (<25% of the tested compound remaining)”. Moreover, the “Assay 1 (SGF) (% Remaining @ 1 hours)” value in data set [2] is on record as “C (>75% of the tested compound remaining)”. For the same compound, in data set [3], the “Assay 3 (% Remaining at 24 h)” value is recorded as “A (<25% of the tested compound remaining)”. The “% Remaining in ClbP Positve Relative to Media-Only” value in data set [4] is “− (>75% compound remaining in the 20 μM WT ClbP reaction relative to the no-enzyme control)”. The “% Remaining in ClbP Negative Relative to Media-Only” value with E. coli BL21(DE3) is given as “− (>75% compound remaining in the 20 μM WT ClbP reaction relative to the no-enzyme control)”.
With `CCCCCCCCCCCCCC(=O)N[C@H](CC(N)=O)C(=O)N[C@H](C(=O)OC)C(C)C` [Example 3, Methyl tetradecanoyl-D-asparaginyl-L-valinate] (Myristoyl-[dN]-Val-OMe), the “Assay 2 (SIF) (% @ Remaining 4 hours)” value in data set [1] is reported as “C (>75% of the tested compound remaining)”. In data set [2], the “Assay 1 (SGF) (% Remaining @ 1 hours)” value is “C (>75% of the tested compound remaining)”. Further, the “Assay 3 (% Remaining at 24 h)” value in data set [3] is “B (25-75% of the tested compound remaining)”. Besides, the “% Remaining in ClbP Positve Relative to Media-Only” value in data set [4] is given as “+ (between 25-75% compound remaining in the 20 μM WT ClbP reaction relative to the no-enzyme control)”. Besides, the “% Remaining in ClbP Negative Relative to Media-Only” value in the data set on E. coli BL21(DE3) is recorded as “+ (between 25-75% compound remaining in the 20 μM WT ClbP reaction relative to the no-enzyme control)”.
With `COC(=O)[C@H](C)NC(=O)[C@@H](CC(N)=O)NC(=O)c1ccccc1O` [Example 16, Methyl (2-hydroxybenzoyl)-D-asparaginyl-L-alaninate], the “Assay 2 (SIF) (% @ Remaining 4 hours)” value in data set [1] is given as “A (<25% of the tested compound remaining)”. For the same compound, the “Assay 1 (SGF) (% Remaining @ 1 hours)” value in data set [2] is “C (>75% of the tested compound remaining)”. Further, in data set [3], the “Assay 3 (% Remaining at 24 h)” value is recorded as “B (25-75% of the tested compound remaining)”. Also, the “% Remaining in ClbP Positve Relative to Media-Only” value in data set [4] is reported as “+ (between 25-75% compound remaining in the 20 μM WT ClbP reaction relative to the no-enzyme control)”. In the data set on E. coli BL21(DE3), the “% Remaining in ClbP Negative Relative to Media-Only” value was “+ (between 25-75% compound remaining in the 20 μM WT ClbP reaction relative to the no-enzyme control)”.
As for `CCCCCCCCCCCCCC(=O)N[C@H](CC(N)=O)C(=O)N[C@@H](C)CCC(=O)Oc1ccccc1` [Example 66, phenyl (S)-4-((R)-4-amino-4-oxo-2-tetradecanamidobutanamido)pentanoate], the “Assay 2 (SIF) (% @ Remaining 4 hours)” value in data set [1] is given as “B (25-75% of the tested compound remaining)”. The “Assay 1 (SGF) (% Remaining @ 1 hours)” value in data set [2] is listed as “C (>75% of the tested compound remaining)”. Moreover, the “Assay 3 (% Remaining at 24 h)” value in data set [3] is listed as “A (<25% of the tested compound remaining)”. The “Selective delivery to the colon (conclusion from Table 2)” value in data set [3] (from SGF, SIF and colonic material stability) is given as “can be selectively delivered to the colon”. The “% Remaining in ClbP Positve Relative to Media-Only” value in data set [4] is reported as “+ (between 25-75% compound remaining in the 20 μM WT ClbP reaction relative to the no-enzyme control)”. Moreover, in the data set on E. coli BL21(DE3), the “% Remaining in ClbP Negative Relative to Media-Only” value is reported as “++ (<25% compound remaining in the 20 μM WT ClbP reaction relative to the control)”.
With `CCCCCCCC(=O)N[C@H](CC(N)=O)C(=O)N[C@@H](C)CCC(=O)O[C@]1(CC)C(=O)OCc2c1cc1n(c2=O)Cc2c-1nc1ccc(O)cc1c2CC` [Example 49, (S)-4,11-diethyl-9-hydroxy-3,14-dioxo-3,4,12,14-tetrahydro-1H-pyrano[3′,4′:6,7]indolizino[1,2-b]quinolin-4-yl (S)-4-((R)-4-amino-2-octanamido-4-oxobutanamido)pentanoate], the “Assay 2 (SIF) (% @ Remaining 4 hours)” value in data set [1] is “C (>75% of the tested compound remaining)”. In addition, in data set [2], the “Assay 1 (SGF) (% Remaining @ 1 hours)” value is on record as “C (>75% of the tested compound remaining)”. Besides, the “Assay 3 (% Remaining at 24 h)” value in data set [3] is reported as “C (>75% of the tested compound remaining)”. Further, in data set [4], the “% Remaining in ClbP Positve Relative to Media-Only” value is “++ (<25% compound remaining in the 20 μM WT ClbP reaction relative to the control)”. The “% Remaining in ClbP Negative Relative to Media-Only” value in the data set on E. coli BL21(DE3) was “+ (between 25-75% compound remaining in the 20 μM WT ClbP reaction relative to the no-enzyme control)”.
